In general, IC50 refers to the concentration that inhibits the measured activity by half.

Results on 20 compounds are retold here after patent publication US20230416271A1, “HETEROARYLQUINAZOLINE COMPOUNDS AS PROTEIN KINASE INHIBITORS” (CHENGDU CYNOGEN BIO-PHARMACEUTICAL TECHNOLOGY CO., LTD., priority 2020, published 2023).

Holding throughout (type): biochemical
Test [1] addresses CDK2/Cyclin A2 (Homo sapiens (Human), UniProt P24941). The experiment in a line: Kinase activity assay (Caliper Mobility Shift Assay), CDK2/Cyclin A2. The procedure:
(§1) The inhibitory effect of compounds against the kinase CDK4/cyclin D3 was detected by Caliper Mobility Shift Assay method. The final concentration of the compounds to be tested was set at 10 concentrations starting from 1 uM by 3-fold serial dilution. 5 μL of compounds at 5-fold final concentration and 10 μL of CDK4/cyclin D3 kinase solution at a final concentration of 10 nM was added to a 384-well reaction plate, respectively. The plate was pre-incubated for 10 min at room temperature (with negative control wells containing 10 uL of kinase buffer and 5 uL of 5% DMSO; positive control wells containing 10 μL of kinase solution and 5 uL of 5% DMSO). The reaction was initiated by adding 10 μL of ATP at a final concentration of 250 uM and the corresponding substrate peptide mixture at room temperature for 150 minutes. 30 uL of stop detection solution containing EDTA was added to stop the kinase reaction. Caliper EZ Reader was used to read the conversion rate. Conversion inhibition rate %=(average conversion rate of positive control %−conversion rate of sample %)/(average conversion rate of positive control %−average conversion rate of negative control %). wherein: negative control wells represent the conversion rate readings of wells without enzymatic activity; positive control wells represent conversion readings for wells with no compound inhibition. The log(inhibitor) vs. response—Variable slope of the analysis software GraphPad Prism 5 was used with log concentration value as the X-axis and the percent inhibition rate as the Y-axis to fit the dose-response curve, the IC50 value of each compound on the enzyme activity was thus obtained. Calculation formula: Y=Bottom+(Top−Bottom)/(1+10^((Log IC50−X)*HillSlope)).
(§2) The IC50 values and inhibitory activities of compounds of the present disclosure on CDK6/Cyclin D3, CDK2/Cyclin A2, and CDK9/cyclin T1 were tested in a similar manner.

In test [2] the target is CDK4/cyclin D3 (Homo sapiens (Human), UniProt P11802). The experiment in a line: Kinase activity assay (Caliper Mobility Shift Assay), CDK4/cyclin D3. The conditions noted are these: 10 nM kinase, 250 uM ATP. As for the experimental part: as §1
Test [3] has as its target CDK6/Cyclin D3 (Homo sapiens (Human), UniProt Q00534). Kind of test: Kinase activity assay (Caliper Mobility Shift Assay), CDK6/Cyclin D3. As for the experimental part: as §1, §2

Sequence of CDK4/cyclin D3 (P11802 whole entry, species assumed): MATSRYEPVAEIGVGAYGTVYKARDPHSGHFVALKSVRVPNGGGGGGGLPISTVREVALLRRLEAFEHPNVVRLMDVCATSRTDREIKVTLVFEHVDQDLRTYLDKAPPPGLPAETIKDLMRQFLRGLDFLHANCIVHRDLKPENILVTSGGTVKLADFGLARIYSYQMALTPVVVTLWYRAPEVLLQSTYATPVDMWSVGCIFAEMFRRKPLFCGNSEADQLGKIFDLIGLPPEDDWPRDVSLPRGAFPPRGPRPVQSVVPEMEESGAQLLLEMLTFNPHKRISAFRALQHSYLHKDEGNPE
Sequence of CDK4/cyclin D3 (P30281 whole entry partner, species assumed): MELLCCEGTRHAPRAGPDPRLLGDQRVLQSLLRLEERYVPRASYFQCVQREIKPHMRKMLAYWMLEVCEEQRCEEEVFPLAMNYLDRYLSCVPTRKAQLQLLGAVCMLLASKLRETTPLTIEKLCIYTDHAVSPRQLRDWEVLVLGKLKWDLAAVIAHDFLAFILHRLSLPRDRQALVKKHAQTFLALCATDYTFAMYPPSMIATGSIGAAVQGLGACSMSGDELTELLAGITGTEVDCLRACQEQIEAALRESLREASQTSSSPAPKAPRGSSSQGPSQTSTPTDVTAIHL
Sequence of CDK6/Cyclin D3 (Q00534 whole entry, species assumed): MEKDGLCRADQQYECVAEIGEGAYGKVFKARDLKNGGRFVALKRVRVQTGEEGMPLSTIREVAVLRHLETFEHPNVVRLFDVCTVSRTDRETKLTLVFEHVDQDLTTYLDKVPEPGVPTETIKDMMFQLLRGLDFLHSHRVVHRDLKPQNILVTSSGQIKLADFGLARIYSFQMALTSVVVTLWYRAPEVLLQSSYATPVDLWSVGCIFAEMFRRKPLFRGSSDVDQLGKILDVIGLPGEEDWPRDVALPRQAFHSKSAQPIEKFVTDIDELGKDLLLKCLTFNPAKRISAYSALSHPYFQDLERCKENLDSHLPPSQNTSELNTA
Sequence of CDK6/Cyclin D3 (P30281 whole entry partner, species assumed): as the sequence (P30281 whole entry partner, species assumed) above

Turning to `CC(C)n1nnc2ccc3cnc(N[C@H]4CC[C@H](N5CCN(C(=O)c6ccccc6)CC5)CC4)nc3c21` [II.10, (4-((1R,4R)-4-((1-isopropyl-1H-[1,2,3]triazolo[4,5-h]quinazolin-8-yl)amino)cyclohexyl)piperazin-1-yl)(phenyl) ketone], the IC50 in test [1] stood at 336 nM; in test [2], 22 nM; in test [3], 46 nM.
The matching figures for `CC(C)n1nnc2ccc3cnc(NC4CCC(NS(C)(=O)=O)CC4)nc3c21` (stereo not drawn) [II.11, N-(4-((1-isopropyl-1H-[1,2,3]triazolo[4,5-h]quinazolin-8-yl)amino)cyclohexyl)methanesulfonamide]: 1 nM, 8 nM and 15 nM.
In the case of `CC(C)n1nnc2ccc3cnc(NC4CCNCC4)nc3c21` [II.12, 1-isopropyl-N-(piperidin-4-yl)-1H-[1,2,3]triazolo[4,5-h] quinazolin-8-amine], the IC50 in test [1] was 151 nM; in test [2] it was 51 nM; in test [3] it was 89 nM.
The matching figures for `CC(C)n1nnc2ccc3cnc(NC4CCN(C)CC4)nc3c21` [II.13, 1-isopropyl-N-(1-methylpiperidin-4-yl)-1H-[1,2,3]triazolo [4,5-h]quinazolin-8-amine]: 110 nM, 41 nM and 90 nM.
In the same order, the values of `CC(C)n1nnc2ccc3cnc(NC4CCN(S(C)(=O)=O)CC4)nc3c21` [II.14, 1-isopropyl-N-(1-(methylsulfonyl)piperidin-4-yl)-1H-[1,2,3] triazolo[4,5-h]quinazolin-8-amine] are 0.2 nM, 3 nM and 5 nM.
The matching figures for `CCS(=O)(=O)N1CCC(Nc2ncc3ccc4nnn(C(C)C)c4c3n2)CC1` [II.15, N-(1-(ethylsulfonyl)piperidin-4-yl)-1-isopropyl-1H-[1,2,3] triazolo[4,5-h]quinazolin-8-amine]: 0.3 nM, 3 nM and 4 nM.
`CC(C)n1nnc2ccc3cnc(NC4CCN(S(=O)(=O)C5CC5)CC4)nc3c21` [II.16, N-(1-(cyclopropylsulfonyl)piperidin-4-yl)-1-isopropyl-1H-[1,2,3]triazolo[4,5-h]quinazolin-8-amine]: the IC50 worked out at 0.2 nM in test [1], 3 nM in test [2] and 5 nM in test [3].
On to `CC(C)n1nnc2ccc3cnc(NC4CCN(S(=O)(=O)CC5CC5)CC4)nc3c21` [II.17, N-(1-((cyclopropylmethyl)sulfonyl)piperidin-4-yl)-1-iso-propyl-1H-[1,2,3]triazolo[4,5-h]quinazolin-8-amine], for which the values for the IC50 in test [1], in test [2] and in test [3] were 1 nM, 8 nM and 15 nM, respectively.
In the same order, the values of `COCCS(=O)(=O)N1CCC(Nc2ncc3ccc4nnn(C(C)C)c4c3n2)CC1` [II.18, 1-isopropyl-N-(1-((2-methoxyethyl)sulfonyl)piperidin-4-yl)-1H-[1,2,3]triazolo[4,5-h]quinazolin-8-amine] are 1 nM, 3 nM and 8 nM.
Consider `CC(C)n1nnc2ccc3cnc(NC4CCN(S(=O)(=O)C(F)F)CC4)nc3c21` [II.19, N-(1-((difluoromethyl)sulfonyl)piperidin-4-yl)-1-isopropyl-1H-[1,2,3]triazolo[4,5-h]quinazolin-8-amine], for which the 50% inhibitory concentration (IC50) in test [1] came out at 0.4 nM; in test [2], 3 nM; in test [3], 4 nM.
The matching figures for `CNS(=O)(=O)N1CCC(Nc2ncc3ccc4nnn(C(C)C)c4c3n2)CC1` [II.20, 4-((1-isopropyl-1H-[1,2,3]triazolo[4,5-h]quinazolin-8-yl)amino)-N-methylpiperidin-1-sulfamide]: 0.2 nM, 4 nM and 12 nM.
In the same order, the values of `CC(C)n1nnc2c(F)cc3cnc(NC4CCN(S(C)(=O)=O)CC4)nc3c21` [II.21, 4-fluoro-1-isopropyl-N-(1-(methylsulfonyl)piperidin-4-yl)-1H-[1,2,3]triazolo[4,5-h]quinazolin-8-amine] are 0.2 nM, 2 nM and 5 nM.
Turning to `CC(C)n1nnc2cc(F)c3cnc(NC4CCN(S(C)(=O)=O)CC4)nc3c21` [II.22, 5-fluoro-1-isopropyl-N-(1-(methylsulfonyl)piperidin-4-yl)-1H-[1,2,3]triazolo[4,5-h]quinazolin-8-amine], the IC50 in test [1] worked out at 0.2 nM; in test [2] it was 3 nM; in test [3], 4 nM.
The matching figures for `CC(C)n1nnc2c(Cl)cc3cnc(NC4CCN(S(C)(=O)=O)CC4)nc3c21` [II.23, 4-chloro-1-isopropyl-N-(1-(methylsulfonyl)piperidin-4-yl)-1H-[1,2,3]triazolo[4,5-h]quinazolin-8-amine]: 0.4 nM, 3 nM and 9 nM.
In the case of `CC(C)n1nnc2c(Br)cc3cnc(NC4CCN(S(C)(=O)=O)CC4)nc3c21` [II.24, 4-bromo-1-isopropyl-N-(1-(methylsulfonyl)piperidin-4-yl)-1H-[1,2,3]triazolo[4,5-h]quinazolin-8-amine], the IC50 in test [1] turned out to be 1 nM; in test [2] it was 4 nM; in test [3] it was 16 nM.
The matching figures for `[2H]c1cc2cnc(NC3CCN(S(C)(=O)=O)CC3)nc2c2c1nnn2C(C)C` [II.25, 1-isopropyl-N-(1-(methylsulfonyl)piperidin-4-yl)-1H-[1,2,3]triazolo [4,5-h]quinazolin-4-d-8-amine]: 0.2 nM, 3 nM and 5 nM.
In the same order, the values of `Cc1cc2cnc(NC3CCN(S(C)(=O)=O)CC3)nc2c2c1nnn2C(C)C` [II.26, 1-isopropyl-4-methyl-N-(1-(methylsulfonyl)piperidin-4-yl)-1H-[1,2,3] triazolo[4,5-h]quinazolin-8-amine] are 0.4 nM, 3 nM and 8 nM.
In the same order, the values of `CC(C)n1nnc2c(C(F)F)cc3cnc(NC4CCN(S(C)(=O)=O)CC4)nc3c21` [II.27, 4-(difluoromethyl)-1-isopropyl-N-(1-(methylsulfonyl)piperidin-4-yl)-1H-[1,2,3]triazolo[4,5-h]quinazolin-8-amine] are 0.2 nM, 3 nM and 5 nM.
For the compound `CCS(=O)(=O)N1CCC(Nc2ncc3cc(C(F)F)c4nnn(C(C)C)c4c3n2)CC1` [II.28, 4-(difluoromethyl)-N-(1-(ethylsulfonyl)piperidin-4-yl)-1-isopropyl-1H-[1,2,3]triazolo[4,5-h]quinazolin-8-amine], the results for the half-inhibitory concentration (IC50) in test [1], in test [2] and in test [3] were 0.2 nM, 3 nM and 7 nM, respectively.
The matching figures for `CC(C)n1nnc2c(C(F)F)cc3cnc(NC4CCN(S(=O)(=O)C5CC5)CC4)nc3c21` [II.29, N-(1-(cyclopropylsulfonyl)piperidin-4-yl)-4-(difluoromethyl)-1-isopropyl-1H-[1,2,3]triazolo[4,5-h]quinazolin-8-amine]: 0.2 nM, 1 nM and 3 nM.
